Patent publication US11771709B2, “ALK protein degradation agent and anti-tumor application thereof” (ShanghaiTech University, priority 2017, dated 2023)

How the values were obtained:
SR (NPM-ALK) cells = assay: Growth inhibition IC50 in ALCL SR cells (CCK8/WST, 72 hours); type: cell-based; settings: SR cells, WST
[1] = biological target: T1, ALK protein in H3122 (EML4-ALK) cells (Homo sapiens, UniProt Q9UM73); assay: Western blot of ALK protein level (degradation, DC50), ALK phosphorylation and downstream signaling in H3122 cells; type: cell-based; settings: for DC50: ALK protein degradation in H3122 cells
T1 construct: EML4 (Echinoderm microtubule-associated protein-like 4, Q9HC35) fusion partner, variant 1; host or cells: NCI-H3122 lung adenocarcinoma cells; the other entry of the earlier key: EML4 (Q9HC35, Echinoderm microtubule-associated protein-like 4)
T1 sequence (Q9UM73 with tags, fused parts or gaps): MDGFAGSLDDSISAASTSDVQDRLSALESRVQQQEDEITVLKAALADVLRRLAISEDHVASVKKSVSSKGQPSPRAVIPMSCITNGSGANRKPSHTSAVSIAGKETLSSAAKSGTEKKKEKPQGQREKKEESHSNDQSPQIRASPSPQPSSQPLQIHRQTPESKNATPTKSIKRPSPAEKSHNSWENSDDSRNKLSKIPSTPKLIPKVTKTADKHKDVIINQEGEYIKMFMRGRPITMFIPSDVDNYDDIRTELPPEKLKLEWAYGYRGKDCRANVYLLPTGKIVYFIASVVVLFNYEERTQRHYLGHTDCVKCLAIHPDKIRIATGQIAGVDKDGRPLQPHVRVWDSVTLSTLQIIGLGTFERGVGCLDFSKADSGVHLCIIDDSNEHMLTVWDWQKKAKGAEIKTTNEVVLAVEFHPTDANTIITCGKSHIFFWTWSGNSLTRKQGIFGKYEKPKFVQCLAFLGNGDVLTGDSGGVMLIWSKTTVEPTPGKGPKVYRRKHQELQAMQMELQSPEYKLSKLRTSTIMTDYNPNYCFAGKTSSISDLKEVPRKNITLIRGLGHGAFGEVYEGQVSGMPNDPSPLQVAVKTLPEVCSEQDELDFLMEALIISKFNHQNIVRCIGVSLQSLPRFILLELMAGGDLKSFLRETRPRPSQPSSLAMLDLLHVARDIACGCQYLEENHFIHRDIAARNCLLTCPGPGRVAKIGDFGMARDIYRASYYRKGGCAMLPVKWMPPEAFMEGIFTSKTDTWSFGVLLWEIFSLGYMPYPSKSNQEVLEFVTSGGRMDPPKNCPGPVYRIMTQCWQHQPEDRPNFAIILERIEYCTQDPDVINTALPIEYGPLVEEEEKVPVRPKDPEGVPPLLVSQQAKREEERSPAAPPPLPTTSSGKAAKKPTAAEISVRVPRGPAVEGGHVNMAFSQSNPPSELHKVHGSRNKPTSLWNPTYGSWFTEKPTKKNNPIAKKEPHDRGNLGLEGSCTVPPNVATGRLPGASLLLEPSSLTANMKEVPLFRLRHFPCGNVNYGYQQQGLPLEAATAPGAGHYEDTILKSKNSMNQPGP

[2] = 72 h, Brigatinib-based PROTAD molecules (Table 3)
[3] = Alectinib based ALK PROTAD compounds (Table 4)

| SMILES | DC50 [1] [nM] | phosphorylation of AKT and ERK ([1]; H3122 cells, western blot) | ALK protein level / degradation ([1]; H3122 cells, western blot, up to 500 nM) | IC50 (SR (NPM-ALK) cells; [2]) [nM] | IC50 (SR (NPM-ALK) cells; [3]) [nM] |
| --- | --- | --- | --- | --- | --- |
| COc1cc(N2CCC(NC(=O)CCC(=O)NCCNc3cccc4c3C(=O)N(C3CCC(=O)NC3=O)C4=O)CC2)ccc1Nc1ncc(Cl)c(Nc2ccccc2P(C)(C)=O)n1 (stereo not drawn) [SIAIS164157, N1-(1-(4-((5-chloro-4-((2-(dimethylphosphoryl)phenyl)amino)pyrimidin-2-yl)amino)-3-methoxyphenyl)piperidin-4-yl)-N4-(2-((2-(2,6-dioxopiperidin-3-yl)-1,3-dioxoisoindolin-4-yl)amino)ethyl)succinamide] | 1 to 50 |  |  | 15.7 ± 15 |  |
| COc1cc(N2CCC(NC(=O)CCOCCOCCOCCNc3cccc4c3C(=O)N(C3CCC(=O)NC3=O)C4=O)CC2)ccc1Nc1ncc(Cl)c(Nc2ccccc2P(C)(C)=O)n1 (stereo not drawn) [SIAIS151115, N-(1-(4-((5-chloro-4-((2-(dimethylphosphoryl)phenyl)amino)pyrimidin-2-yl)amino)-3-methoxyphenyl)piperidin-4-yl)-3-(2-(2-(2-((2-(2,6-dioxopiperidin-3-yl)-1,3-dioxoisoindolin-4-yl)amino)ethoxy)ethoxy)ethoxy)propenamide] | 100 to 500 |  |  | 8 ± 3.2 |  |
| COc1cc(N2CCC(NC(=O)CCOCCOCCOCCOCCOCCC(=O)N[C@H](C(=O)N3C[C@H](O)C[C@H]3C(=O)NCc3ccc(-c4scnc4C)cc3)C(C)(C)C)CC2)ccc1Nc1ncc(Cl)c(Nc2ccccc2P(C)(C)=O)n1 [SIAIS151127, N1-(1-(4-((5-chloro-4-((2-(dimethylphosphoryl)phenyl)amino)pyrimidin-2-yl)amino)-3-methoxyphenyl)piperidin-4-yl)-N19-((S)-1-((2S,4R)-4-hydroxy-2-((4-(4-methylthiazol-5-yl)benzyl)carbamoyl)pyrrolidin-1-yl)-3,3-dimethyl-1-oxobutan-2-yl)-4,7,10,13,16-pentaoxanonadecanediamide] | 20 to 100 |  |  | 36.4 ± 23.5 |  |
| COc1cc(N2CCN(C(=O)CCOCCOCCNc3cccc4c3C(=O)N(C3CCC(=O)NC3=O)C4=O)CC2)ccc1Nc1ncc(Cl)c(Nc2ccccc2P(C)(C)=O)n1 (stereo not drawn) [SIAIS1197067, 4-((2-(2-(3-(4-(4-((5-chloro-4-((2-(dimethylphosphoryl)phenyl)amino)pyrimidin-2-yl)amino)-3-methoxyphenyl)piperazin-1-yl)-3-oxopropoxy)ethoxy)ethyl)amino)-2-(2,6-dioxopiperidin-3-yl)isoindoline-1,3-dione] | 100 to 500 |  |  | 16.1 ± 6.1 |  |
| COc1cc(N2CCC(NC(=O)CCCCNc3cccc4c3C(=O)N(C3CCC(=O)NC3=O)C4=O)CC2)ccc1Nc1ncc(Cl)c(Nc2ccccc2P(C)(C)=O)n1 (stereo not drawn) [SIAIS151119, N-(1-(4-((5-chloro-4-((2-(dimethylphosphoryl)phenyl)amino)pyrimidin-2-yl)amino)-3-methoxyphenyl)piperidin-4-yl)-5-((2-(2,6-dioxopiperidin-3-yl)-1,3-dioxoisoindolin-4-yl)amino)pentanamide] | 100 to 500 |  |  | 1.6 ± 1 |  |
| COc1cc(N2CCN(C(=O)CCC(=O)N[C@H](C(=O)N3C[C@H](O)C[C@H]3C(=O)NCc3ccc(-c4scnc4C)cc3)C(C)(C)C)CC2)ccc1Nc1ncc(Cl)c(Nc2ccccc2P(C)(C)=O)n1 [SIAIS1197145, (2S,4R)-1-((S)-2-(4-(4-(4-((5-chloro-4-((2-(dimethylphosphoryl)phenyl)amino)pyrimidin-2-yl)amino)-3-methoxyphenyl)piperazin-1-yl)-4-oxobutanamido)-3,3-dimethylbutanoyl)-4-hydroxy-N-(4-(4-methylthiazol-5-yl)benzyl)pyrrolidine-2-carboxamide] | 1 to 50 |  |  | 8.5 ± 5.6 |  |
| CCc1cc2c(cc1N1CCN(C(=O)CCCNc3cccc4c3C(=O)N(C3CCC(=O)NC3=O)C4=O)CC1)C(C)(C)c1[nH]c3cc(C#N)ccc3c1C2=O (stereo not drawn) [SIAIS164024, 8-(4-(4-((2-(2,6-dioxopiperidin-3-yl)-1,3-dioxoisoindolin-4-yl)amino)butanoyl)piperazin-1-yl)-9-ethyl-6,6-dimethyl-11-oxo-6,11-dihydro-5H-benzo[b]carbazole-3-carbonitrile] | 1 to 10 | inhibited | reduced the protein level of ALK protein |  | 35.8 |
| COc1cc(N2CCC(NC(=O)CCOCCNc3cccc4c3C(=O)N(C3CCC(=O)NC3=O)C4=O)CC2)ccc1Nc1ncc(Cl)c(Nc2ccccc2P(C)(C)=O)n1 (stereo not drawn) [SIAIS151113] | 100 to 500 |  |  | 7.5 ± 5.2 |  |
| COc1cc(N2CCN(C(=O)CCCCC(=O)N[C@H](C(=O)N3C[C@H](O)C[C@H]3C(=O)NCc3ccc(-c4scnc4C)cc3)C(C)(C)C)CC2)ccc1Nc1ncc(Cl)c(Nc2ccccc2P(C)(C)=O)n1 [SIAIS1197149, (2S,4R)-1-((S)-2-(6-(4-(4-((5-chloro-4-((2-(dimethylphosphoryl)phenyl)amino)pyrimidin-2-yl)amino)-3-methoxyphenyl)piperazin-1-yl)-6-oxohexanamido)-3,3-dimethylbutanoyl)-4-hydroxy-N-(4-(4-methylthiazol-5-yl)benzyl)pyrrolidine-2-carboxamide] | 20 to 100 |  |  | 8.2 ± 3.9 |  |
| CCc1cc2c(cc1N1CCN(C(=O)CCCC(=O)N[C@H](C(=O)N3C[C@H](O)C[C@H]3C(=O)NCc3ccc(-c4scnc4C)cc3)C(C)(C)C)CC1)C(C)(C)c1[nH]c3cc(C#N)ccc3c1C2=O [SIAIS164094, (2S,4R)-1-((S)-2-(5-(4-(3-cyano-9-ethyl-6,6-dimethyl-11-oxo-6,11-dihydro-5H-benzo[b]carbazol-8-yl)piperazin-1-yl)-5-oxopentanamido)-3,3-dimethylbutanoyl)-4-hydroxy-N-(4-(4-methylthiazol-5-yl)benzyl)pyrrolidine-2-carboxamide] | 20 to 100 |  |  |  | 124 |
| COc1cc(N2CCC(NC(=O)CCOCCOCCC(=O)N[C@H](C(=O)N3C[C@H](O)C[C@H]3C(=O)NCc3ccc(-c4scnc4C)cc3)C(C)(C)C)CC2)ccc1Nc1ncc(Cl)c(Nc2ccccc2P(C)(C)=O)n1 [SIAIS151124, (2S,4R)-1-((S)-2-(3-(2-(3-((1-(4-((5-chloro-4-((2-(dimethylphosphoryl)phenyl)amino)pyrimidin-2-yl)amino)-3-methoxyphenyl)piperidin-4-yl)amino)-3-oxopropoxy)ethoxy)propanamido)-3,3-dimethylbutanoyl)-4-hydroxy-N-(4-(4-methylthiazol-5-yl)benzyl)pyrrolidine-2-carboxamide] | 100 to 500 |  |  | 76.9 ± 15.9 |  |
| COc1cc(N2CCN(C(=O)CCCCCNc3cccc4c3C(=O)N(C3CCC(=O)NC3=O)C4=O)CC2)ccc1Nc1ncc(Cl)c(Nc2ccccc2P(C)(C)=O)n1 (stereo not drawn) [SIAIS1197063, 4-((6-(4-(4-((5-chloro-4-((2-(dimethylphosphoryl)phenyl)amino)pyrimidin-2-yl)amino)-3-methoxyphenyl)piperazin-1-yl)-6-oxohexyl)amino)-2-(2,6-dioxopiperidin-3-yl)isoindoline-1,3-dione] | 50 to 500 |  |  | 14.1 ± 7.3 |  |

Now from value to compound, other results behind:

| DC50 [1] [nM] | phosphorylation of AKT and ERK ([1]; H3122 cells, western blot) | ALK protein level / degradation ([1]; H3122 cells, western blot, up to 500 nM) | SMILES | IC50 (SR (NPM-ALK) cells; [2]) [nM] | IC50 (SR (NPM-ALK) cells; [3]) [nM] |
| --- | --- | --- | --- | --- | --- |
| 20 to 100 |  |  | CCc1cc2c(cc1N1CCN(C(=O)CCOCCOCCC(=O)N[C@H](C(=O)N3C[C@H](O)C[C@H]3C(=O)NCc3ccc(-c4scnc4C)cc3)C(C)(C)C)CC1)C(C)(C)c1[nH]c3cc(C#N)ccc3c1C2=O [SIAIS164036, (2S,4R)-1-((S)-2-(3-(2-(3-(4-(3-cyano-9-ethyl-6,6-dimethyl-11-oxo-6,11-dihydro-5H-benzo[b]carbazol-8-yl)piperazin-1-yl)-3-oxopropoxy)ethoxy)propanamido)-3,3-dimethylbutanoyl)-4-hydroxy-N-(4-(4-methylthiazol-5-yl)benzyl)pyrrolidine-2-carboxamide] |  | 132 |
| 100 to 500 |  |  | COc1cc(N2CCC(NC(=O)CCNc3cccc4c3C(=O)N(C3CCC(=O)NC3=O)C4=O)CC2)ccc1Nc1ncc(Cl)c(Nc2ccccc2P(C)(C)=O)n1 (stereo not drawn) [SIAIS151121, N-(1-(4-((5-chloro-4-((2-(dimethylphosphoryl)phenyl)amino)pyrimidin-2-yl)amino)-3-methoxyphenyl)piperidin-4-yl)-3-((2-(2,6-dioxopiperidin-3-yl)-1,3-dioxoisoindolin-4-yl)amino)propenamide] | 20.4 ± 8.5 |  |
| 50 to 500 |  |  | COc1cc(N2CCN(C(=O)CCCCNc3cccc4c3C(=O)N(C3CCC(=O)NC3=O)C4=O)CC2)ccc1Nc1ncc(Cl)c(Nc2ccccc2P(C)(C)=O)n1 (stereo not drawn) [SIAIS1197061, 4-((5-(4-(4-((5-chloro-4-((2-(dimethylphosphoryl)phenyl)amino)pyrimidin-2-yl)amino)-3-methoxyphenyl)piperazin-1-yl)-5-oxopentyl)amino)-2-(2,6-dioxopiperidin-3-yl)isoindoline-1,3-dione] | 8 ± 4.4 |  |
| 100 to 500 |  |  | COc1cc(N2CCC(NC(=O)CCOCCOCCOCCOCCNc3cccc4c3C(=O)N(C3CCC(=O)NC3=O)C4=O)CC2)ccc1Nc1ncc(Cl)c(Nc2ccccc2P(C)(C)=O)n1 (stereo not drawn) [SIAIS151116, N-(1-(4-((5-chloro-4-((2-(dimethylphosphoryl)phenyl)amino)pyrimidin-2-yl)amino)-3-methoxyphenyl)piperidin-4-yl)-1-((2-(2,6-dioxopiperidin-3-yl)-1,3-dioxoisoindolin-4-yl)amino)-3,6,9,12-tetraoxapentadecan-15-amide] | 15.3 ± 9.8 |  |
| 100 to 500 |  |  | COc1cc(N2CCC(NC(=O)CCOCCOCCOCCC(=O)N[C@H](C(=O)N3C[C@H](O)C[C@H]3C(=O)NCc3ccc(-c4scnc4C)cc3)C(C)(C)C)CC2)ccc1Nc1ncc(Cl)c(Nc2ccccc2P(C)(C)=O)n1 [SIAIS151125, (2S,4R)-1-((S)-2-(tert-butyl)-16-((1-(4-((5-chloro-4-((2-(dimethylphosphoryl)phenyl)amino)pyrimidin-2-yl)amino)-3-methoxyphenyl)piperidin-4-yl)amino)-4,16-dioxo-7,10,13-trioxa-3-azahexadecanoyl)-4-hydroxy-N-(4-(4-methylthiazol-5-yl)benzyl)pyrrolidine-2-carboxamide] | 61.9 ± 30.5 |  |
